Experimental data: US6524842B1, “Biodegradation of gasoline oxygenates” (Envirogen, Inc., priority 2000, dated 2003)
Where two headings read alike, the source gives them in different places.

Columns and labels:
strain ENV735 [1] = assay: Growth substrates for ENV735; type: cell-based, Hydrogenophaga flava
strain ENV735 [2] = assay: [14C]MTBE mineralization to 14CO2; type: cell-based, Hydrogenophaga flava; details: YE-grown cells, 10 mg/L, within 24 hr
Description: Cells were collected by centrifugation, washed, and suspended in BSM to an OD550 of 1.0. […] At timed intervals air was passed through the samples and organic compounds and ^14CO2 in the effluent air were trapped (Marinucci, A. C. and R. Bartha, “Apparatus for monitoring the mineralization of volatile ^14C-labeled compounds”, Applied and Environmental Microbiology, 38:1020-1022, (1979)). Oxosol C14 (National Diagnostics, Atlanta, Ga.) served as a CO2 trapping solution and liquid scintillation cocktail. The amount of ^14CO2 produced was quantified by liquid scintillation counting.

[3] = system: hydrogen-oxidizing microorganism; assay: Bioreactor laboratory testing, continuous operation; details: hydraulic retention time of 2.5 hr to 3 days
Description: Batch operation can be initiated by inoculating the reactor with the hydrogen-oxidizing microorganism and then adding tertiary butyl alcohol, for example, to a final concentration of from 0.1 to 1% (v/v). The organisms are aerated and allowed to grow until no tertiary butyl alcohol remains in the culture medium. Additional tertiary butyl alcohol can then be added to further increase biomass levels. After sufficient biomass is obtained, a small amount of contaminant (e.g., MTBE) can be added to acclimate the organisms. Additional contaminant can be added after depletion of the prior addition. When sufficient degradation rates are achieved, the reactor can be operated in a continuous mode. Preferably, during continuous and batch operation, the reactor should be operated at a temperature of between 25 and 37° C., with the pH in the range of 6.8 to 7.2, and a dissolved oxygen concentration >2 mg/L. Hydraulic retention time within the reactor should be adjusted to allow sufficient time for degradation of the target compound to below treatment standards. […] Furthermore, the volatile suspended solids (biomass) concentration should be maintained at a relatively high concentration, preferably from 1,000 to 30,000 mg/l depending on the contaminant loading rate.

[4] = system: ENV 735-containing culture from MBR1; assay: Fluid bed bioreactor (FBR) MTBE degradation; details: flow rate increased 3-fold, 1 hr HRT
Method: A laboratory-scale FBR was constructed from a glass column with Teflon and stainless steel tubing and fittings to minimize abiotic losses. […] The carbon was fluidized to an expanded bed height of 125% of the original bed height by using a gear pump in the recycle line. Contaminated water was fed at a rate of 5.6 to 17 mL/min using a peristaltic pump, corresponding to hydraulic retention times (HRTs) of approximately 3 to 1 h, respectively. The HRT was calculated based on expanded bed volume and feed flow rate (assumes no significant biodegradation occurred in other wetted areas of the reactor).

ENV 735 = assay: Membrane bioreactor (MBR1, MBR2) MTBE degradation; parameters: species or system Hydrogenophaga flava
Method: A calculated solids retention time (SRT) of 160 days was maintained by removing a portion of the reactor contents each day. The dissolved oxygen concentration in the reactor was maintained at ˜2 mg/L by adding air.

strain ENV735 [5] = assay: MTBE degradation assays with ENV735 cells; type: cell-based, Hydrogenophaga flava
[6] = system: anaerobic sediment samples; details: the one active anaerobic sediment sample; cited from earlier work
strain ENV735 [7] = assay: TBA degradation by ENV735 cells; type: cell-based, Hydrogenophaga flava
[8] = growth of ENV735 on the substrate

| Molecule | Growth (strain ENV735 [1]; [8]) | other results |
| --- | --- | --- |
| CO [Methanol] | − |  |
| COC(C)(C)C [[^14C]MTBE] |  | added [14C]MTBE recovered as 14CO2 (strain ENV735 [2]): Approximately 80% |
| CC(C)(O)C(=O)O [2-Hydroxy isobutyric acid] | + |  |
| CC(=O)C(=O)O [Pyruvic acid] | +/− |  |
| CCC [Propane] | +/− |  |
| CCC(=O)O [Propionic acid] | − |  |
| CC(=O)[O-].[Na+] [Sodium acetate] | +/− |  |
| CCC(C)C [Iso-Pentane] | − |  |
| COC(C)(C)C [MTBE, methyl-tert-butyl ether] | + | degradation of influent MTBE [3]: > 90%; removal of added MTBE [4]: > 90%; MTBE removal rate (ENV 735; MBR1, 1 d HRT, influent ˜1000 mg/L): 42 mg/L/h; MTBE removal rate (ENV 735; MBR2, influent ˜2000 mg/L): 28 mg/L/h; MTBE stripping as share of MTBE loss (ENV 735; effluent air of MBRs): < 5%; initial maximum MTBE oxidation rate (strain ENV735 [5]; 30° C., YE-grown cells, 25 mg/L MTBE): 86 nmole MTBE/min./mg total cell protein; transformation of MTBE [6]: about 50% |
| Casein | + |  |
| CCCO [1-Propanol] | +/− |  |
| N[C@@H](CCC(=O)O)C(=O)O [Glutamic acid] | +/− |  |
| CC(C)(C)O [TBA, tertiary-butyl alcohol] |  | Growth (strain ENV735 [1]): +++; initial TBA degradation rate (strain ENV735 [7]): 30 nmoles TBA/min./mg cell protein |
| CC(C)O [2-Propanol] | − |  |
| OC[C@H]1O[C@@](CO)(O[C@H]2O[C@H](CO)[C@@H](O)[C@H](O)[C@H]2O)[C@@H](O)[C@@H]1O [Sucrose] | +++ |  |
| [HH] [H2, hydrogen] |  | effect of presence of H2 on MTBE degradation (strain ENV735 [5]; strain ENV735): not inhibited; Growth on H2 as a sole energy source (strain ENV735 [1]; strain ENV735): grew readily |
| CC(O)C(=O)O (centres unmarked) [Lactic acid] | +/− |  |
